Each cell line was assayed with N[C@@H]1CCCN(c2c(/C=C3\SC(=O)NC3=O)cccc2-c2ccccc2)C1 [AZD1208] (assay: relative viability (nuclei count vs DMSO), 5 days (fraction); higher = more cells survive). Settings: 0.08 µM.
Outline: (§1)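 After an overnight hold at 37 °C, lung cancer cell lines in 1536-well plates were pinned with five library-drug doses (not always all listed), each √10 from the next, on vehicle-anchored plates. The cells stayed 5 days without fresh medium, then a one-step fix, permeabilisation and Hoechst stain preceded 4× imaging and MetaXpress nuclear counts. A plate passed only with control CV under 25% and at least one doubling. Viability is the median, over plates, of treated-well nuclei relative to vehicle-well nuclei.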

Row | Cell Line | relative viability
1 | NCI-H2347 | 1.02
2 | NCI-H1299 | 1.01
3 | NCI-H650 | 1.09
4 | CAL-12T | 1.01
5 | NCI-H1651 | 0.954
6 | EPLC-272H | 0.983
7 | NCI-H23 | 0.968
8 | NCI-H1792 | 1.08
9 | NCI-H1355 | 1.03
10 | NCI-H322M | 0.94
11 | NCI-H1437 | 1.06
12 | NCI-H1755 | 0.988
13 | NCI-H2085 | 0.974
14 | HCC-15 | 1.01
15 | NCI-H1793 | 1.02
16 | PC-3 [JPC-3] | 1.05
17 | EKVX | 0.988
18 | LC-2-ad | 1.02
19 | NCI-H1563 | 0.962
20 | NCI-H1944 | 0.963
21 | NCI-H1975 | 1.06
22 | SK-LU-1 | 0.988
23 | ABC-1 | 0.965
24 | NCI-H358 | 0.904
25 | NCI-H661 | 0.993
26 | RERF-LC-KJ | 0.998

Same assay, conditions: 0.253 µM

Row | Cell Line | relative viability
27 | NCI-H2347 | 1.09
28 | NCI-H1299 | 1.06
29 | NCI-H650 | 0.972
30 | CAL-12T | 1.13
31 | NCI-H1651 | 1.07
32 | EPLC-272H | 0.974
33 | NCI-H23 | 1.08
34 | NCI-H1792 | 1.05
35 | NCI-H1355 | 0.983
36 | NCI-H322M | 0.943
37 | NCI-H1437 | 1.13
38 | NCI-H1755 | 1.07
39 | NCI-H2085 | 1.09
40 | HCC-15 | 1.02
41 | NCI-H1793 | 1.2
42 | PC-3 [JPC-3] | 1.06
43 | EKVX | 1.11
44 | LC-2-ad | 1.03
45 | NCI-H1563 | 0.928
46 | NCI-H1944 | 0.898
47 | NCI-H1975 | 1.08
48 | SK-LU-1 | 1.15
49 | ABC-1 | 0.966
50 | NCI-H358 | 0.78
51 | NCI-H661 | 1.02
52 | RERF-LC-KJ | 1.03

Same assay, conditions: 0.8 µM

Row | Cell Line | relative viability
53 | NCI-H2347 | 1
54 | NCI-H1299 | 1.03
55 | NCI-H650 | 0.833
56 | CAL-12T | 0.967
57 | NCI-H1651 | 0.83
58 | EPLC-272H | 0.861
59 | NCI-H23 | 0.902
60 | NCI-H1792 | 0.646
61 | NCI-H1355 | 0.908
62 | NCI-H322M | 0.943
63 | NCI-H1437 | 1.05
64 | NCI-H1755 | 0.952
65 | NCI-H2085 | 0.994
66 | HCC-15 | 0.879
67 | NCI-H1793 | 0.794
68 | PC-3 [JPC-3] | 1.08
69 | EKVX | 0.903
70 | LC-2-ad | 0.927
71 | NCI-H1563 | 0.952
72 | NCI-H1944 | 0.861
73 | NCI-H1975 | 0.909
74 | SK-LU-1 | 0.932
75 | ABC-1 | 0.856
76 | NCI-H358 | 0.798
77 | NCI-H661 | 1.04
78 | RERF-LC-KJ | 0.878

Same assay, conditions: 2.53 µM

Row | Cell Line | relative viability
79 | NCI-H2347 | 0.951
80 | NCI-H1299 | 1.06
81 | NCI-H650 | 0.759
82 | CAL-12T | 1.01
83 | NCI-H1651 | 0.928
84 | EPLC-272H | 0.864
85 | NCI-H23 | 0.886
86 | NCI-H1792 | 0.954
87 | NCI-H1355 | 0.876
88 | NCI-H322M | 0.891
89 | NCI-H1437 | 1.03
90 | NCI-H1755 | 0.983
91 | NCI-H2085 | 1.01
92 | HCC-15 | 0.939
93 | NCI-H1793 | 1.01
94 | PC-3 [JPC-3] | 1.17
95 | EKVX | 1.04
96 | LC-2-ad | 0.887
97 | NCI-H1563 | 0.956
98 | NCI-H1944 | 0.822
99 | NCI-H1975 | 1.04
100 | SK-LU-1 | 1.05
101 | ABC-1 | 0.923
102 | NCI-H358 | 0.862
103 | NCI-H661 | 0.981
104 | RERF-LC-KJ | 0.935

Same assay, conditions: 8 µM

Row | Cell Line | relative viability
105 | NCI-H2347 | 1.08
106 | NCI-H1299 | 1.06
107 | NCI-H650 | 0.73
108 | CAL-12T | 1.05
109 | NCI-H1651 | 0.856
110 | EPLC-272H | 0.742
111 | NCI-H23 | 0.842
112 | NCI-H1792 | 0.664
113 | NCI-H1355 | 0.789
114 | NCI-H322M | 1.04
115 | NCI-H1437 | 0.939
116 | NCI-H1755 | 0.792
117 | NCI-H2085 | 1.05
118 | HCC-15 | 0.805
119 | NCI-H1793 | 0.673
120 | PC-3 [JPC-3] | 1.08
121 | EKVX | 0.972
122 | LC-2-ad | 0.899
123 | NCI-H1563 | 0.923
124 | NCI-H1944 | 0.639
125 | NCI-H1975 | 0.878
126 | SK-LU-1 | 0.922
127 | ABC-1 | 0.899
128 | NCI-H358 | 0.729
129 | NCI-H661 | 0.93
130 | RERF-LC-KJ | 0.746

What follows are cell lines tested with CN1CCN(CC1)C2=CC(=C(C=C2)NC3=NC(=C(S3)C(=O)C4=C(C=CC=C4Cl)Cl)N)OC [XMD14-99] in the same assay as above. Settings: 0.08 µM.
Outline: as §1

Row | Cell Line | relative viability
131 | NCI-H2347 | 1.04
132 | NCI-H1299 | 0.996
133 | NCI-H650 | 1.02
134 | CAL-12T | 0.974
135 | NCI-H1651 | 0.972
136 | EPLC-272H | 1.09
137 | NCI-H23 | 1.01
138 | NCI-H1792 | 1.02
139 | NCI-H1355 | 0.996
140 | NCI-H322M | 0.994
141 | NCI-H1437 | 0.968
142 | NCI-H1755 | 0.996
143 | NCI-H2085 | 1
144 | HCC-15 | 1.02
145 | NCI-H1793 | 0.881
146 | PC-3 [JPC-3] | 1.08
147 | EKVX | 0.98
148 | LC-2-ad | 0.973
149 | NCI-H1563 | 0.926
150 | NCI-H1944 | 0.906
151 | NCI-H1975 | 0.992
152 | SK-LU-1 | 0.987
153 | ABC-1 | 0.99
154 | NCI-H358 | 0.959
155 | NCI-H661 | 0.925
156 | RERF-LC-KJ | 0.991

Same assay, conditions: 0.8 µM

Row | Cell Line | relative viability
157 | NCI-H2347 | 1
158 | NCI-H1299 | 0.98
159 | NCI-H650 | 1
160 | CAL-12T | 1.01
161 | NCI-H1651 | 0.984
162 | EPLC-272H | 0.998
163 | NCI-H23 | 0.996
164 | NCI-H1792 | 0.879
165 | NCI-H1355 | 0.999
166 | NCI-H322M | 0.977
167 | NCI-H1437 | 0.903
168 | NCI-H1755 | 0.974
169 | NCI-H2085 | 0.978
170 | HCC-15 | 1.03
171 | NCI-H1793 | 0.892
172 | PC-3 [JPC-3] | 1.03
173 | EKVX | 0.892
174 | LC-2-ad | 0.963
175 | NCI-H1563 | 0.999
176 | NCI-H1944 | 0.917
177 | NCI-H1975 | 0.994
178 | SK-LU-1 | 1.04
179 | ABC-1 | 1.03
180 | NCI-H358 | 0.895
181 | NCI-H661 | 0.948
182 | RERF-LC-KJ | 0.938

Same assay, conditions: 2.53 µM

Row | Cell Line | relative viability
183 | NCI-H2347 | 0.966
184 | NCI-H1299 | 0.941
185 | NCI-H650 | 0.98
186 | CAL-12T | 0.933
187 | NCI-H1651 | 0.964
188 | EPLC-272H | 0.942
189 | NCI-H23 | 0.911
190 | NCI-H1792 | 0.818
191 | NCI-H1355 | 0.89
192 | NCI-H322M | 0.86
193 | NCI-H1437 | 0.814
194 | NCI-H1755 | 1.01
195 | NCI-H2085 | 0.961
196 | HCC-15 | 0.922
197 | NCI-H1793 | 0.839
198 | PC-3 [JPC-3] | 0.95
199 | EKVX | 0.954
200 | LC-2-ad | 0.929
201 | NCI-H1563 | 0.92
202 | NCI-H1944 | 0.817
203 | NCI-H1975 | 0.917
204 | SK-LU-1 | 0.948
205 | ABC-1 | 0.964
206 | NCI-H358 | 0.851
207 | NCI-H661 | 0.835
208 | RERF-LC-KJ | 0.903

Same assay, conditions: 8 µM

Row | Cell Line | relative viability
209 | NCI-H2347 | 0.637
210 | NCI-H1299 | 0.859
211 | NCI-H650 | 0.808
212 | CAL-12T | 0.692
213 | NCI-H1651 | 0.845
214 | EPLC-272H | 0.787
215 | NCI-H23 | 0.685
216 | NCI-H1792 | 0.471
217 | NCI-H1355 | 0.825
218 | NCI-H322M | 0.762
219 | NCI-H1437 | 0.682
220 | NCI-H1755 | 0.784
221 | NCI-H2085 | 0.837
222 | HCC-15 | 0.759
223 | NCI-H1793 | 0.688
224 | PC-3 [JPC-3] | 0.818
225 | EKVX | 0.812
226 | LC-2-ad | 0.775
227 | NCI-H1563 | 0.833
228 | NCI-H1944 | 0.809
229 | NCI-H1975 | 0.788
230 | SK-LU-1 | 0.7
231 | ABC-1 | 0.727
232 | NCI-H358 | 0.57
233 | NCI-H661 | 0.678
234 | RERF-LC-KJ | 0.834

From the supplement of paper PMC10307832
